# Experimental data published in patent US5700779A (Cortech, Inc., priority 1996, dated 1997).
# Where no end group is shown, it is not given here. [ ]: non-standard residue; d: D form. Oic = O=C(O)[C@@H]1C[C@@H]2CCCC[C@@H]2N1; Hyp = O=C(O)[C@@H]1C[C@@H](O)CN1; dTic = O=C(O)[C@H]1Cc2ccccc2CN1; 2Thi = N[C@@H](Cc1cccs1)C(=O)O
# Key:
# [1] = molecular target: T1, bradykinin type 1 (BK1) receptors (Oryctolagus cuniculus, UniProt P48748); assay: rabbit aorta in vitro B1 antagonist activity; conditions: reversal of des-Arg9-bradykinin contraction of rabbit aorta strips
# T1 construct: Spiral strips were mounted under 2 g resting tension in 5 mL tissue baths; from tissue; host or cells: rabbit thoracic aorta spiral strips (New Zealand White)
# T1 sequence (P48748 1-352): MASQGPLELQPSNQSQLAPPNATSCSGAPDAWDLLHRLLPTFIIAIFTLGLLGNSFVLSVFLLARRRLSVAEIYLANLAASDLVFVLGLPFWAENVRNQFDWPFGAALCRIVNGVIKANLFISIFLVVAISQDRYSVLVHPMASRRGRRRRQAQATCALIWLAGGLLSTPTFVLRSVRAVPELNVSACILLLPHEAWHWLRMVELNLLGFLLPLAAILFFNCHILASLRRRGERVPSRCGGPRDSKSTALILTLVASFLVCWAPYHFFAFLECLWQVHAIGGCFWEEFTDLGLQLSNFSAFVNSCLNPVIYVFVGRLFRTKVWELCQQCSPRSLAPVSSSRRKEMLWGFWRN
# Description: Female New Zealand White rabbits were killed by overdose of pentobarbital (80 mg/kg i.v.) and the thoracic aorta removed. […] Two concentration-effect curves for des-Arg^9 -bradykinin were constructed at 1 and 3 hours. At five hours des-Arg^9 -bradykinin was added to the bath to a final concentration of […]. This produced stable, sustained and prolonged contractions of up to 45 minutes.
# [2] = molecular target: T2, bradykinin type 2 (BK2) receptors (Rattus norvegicus, UniProt P25023); assay: standard rat uterus pA2 assay (in vitro B2 antagonist activity); conditions: for % Recovery: recovery of agonist response after washing 40 minutes following highest antagonist concentration; for B2 pA2 (Rat Uterus): antagonist preincubated for 15 minutes; for activity in rat uterus functional tissue assay: summary of Table 1
# T2 construct: Uterine horns were removed, placed under a 1 g resting tension in 4 mL tissue baths; from tissue; host or cells: rat uterine horns (Sprague-Dawley, stilbesterol-pretreated)
# T2 sequence (P25023 1-396): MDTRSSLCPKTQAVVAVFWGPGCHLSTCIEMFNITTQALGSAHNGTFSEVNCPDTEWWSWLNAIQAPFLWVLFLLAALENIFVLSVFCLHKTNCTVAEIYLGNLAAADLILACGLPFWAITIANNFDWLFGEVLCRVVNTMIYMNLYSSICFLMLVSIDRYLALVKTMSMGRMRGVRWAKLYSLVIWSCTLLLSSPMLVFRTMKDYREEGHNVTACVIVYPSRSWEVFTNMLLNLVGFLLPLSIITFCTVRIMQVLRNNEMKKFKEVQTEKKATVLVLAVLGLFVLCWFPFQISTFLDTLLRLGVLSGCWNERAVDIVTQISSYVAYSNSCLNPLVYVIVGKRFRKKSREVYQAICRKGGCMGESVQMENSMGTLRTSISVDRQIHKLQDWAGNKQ
# Description: The standard rat uterus pA2 assay was conducted as follows:
# Female Sprague-Dawley rats (200-250 g) were pretreated with stilbesterol (100 μg/kg) and killed 18 hours later by a blow on the head and exsanguinated. Uterine horns were removed, placed under a 1 g resting tension in 4 mL tissue baths containing De Jalon's solution at 31° C. and aerated. […] Antagonist potency was calculated according to the method of Arunlakshana and Schild (Arunlakshana, O., Schild, H. O., Br. J. Pharmacology 14 48-58 (1959)). […] The difference in pD2 values compared to concurrent control reflected the "percentage recovery" of agonist response.
# [3] = molecular target: T3, bradykinin type 2 (BK2) receptors (Cavia porcellus, UniProt O70526); assay: antagonist binding to guinea pig ileum (tritium labeled bradykinin)
# T3 construct: from tissue; host or cells: guinea pig ileum membrane preparation (Hartley strain)
# T3 sequence (O70526 1-372): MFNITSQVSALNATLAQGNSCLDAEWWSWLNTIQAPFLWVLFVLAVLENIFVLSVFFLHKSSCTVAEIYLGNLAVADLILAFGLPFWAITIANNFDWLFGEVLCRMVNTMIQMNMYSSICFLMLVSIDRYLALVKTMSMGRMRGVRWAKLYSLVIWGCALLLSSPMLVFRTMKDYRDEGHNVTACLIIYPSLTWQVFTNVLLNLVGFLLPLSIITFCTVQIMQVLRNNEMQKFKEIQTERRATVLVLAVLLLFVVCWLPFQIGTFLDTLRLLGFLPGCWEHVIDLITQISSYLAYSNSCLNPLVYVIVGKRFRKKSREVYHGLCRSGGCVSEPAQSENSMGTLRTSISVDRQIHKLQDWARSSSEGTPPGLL
# Description: Radioactivity was determined by liquid scintillation counting.
# [4] = stability in porcine kidney cortical membranes; type: in vitro ADME; conditions: pig, pH 7.2, porcine kidney preparation
# Description: (§1) Rat or porcine lung and kidney cortical membranes were prepared using differential centrifugation as described by Skidgel (Booth, A. G. et al., Biochemical Journal 142, 575-581 (1974)) for lung or by Booth (Erdos, E. G. et al., Biochemical Pharmacology 33 3471-3478 (1984)) for kidney. Membrane preparations were stored at -20° C. […] Ten microliters of this working solution were delivered into a series of Eppendorf tubes, followed by human or guinea pig plasma (90 μL) or PBS as a control blank, and incubated for various time periods. At each time point the reaction was quenched with the addition of 100 μL 1N HCl in either acetonitrile or ethanol. Samples were allowed to stand approximately fifteen minutes and were then spun at 14,000 rpm for 10 minutes. Supernatant fractions were removed, filtered through 0.22 μM filters (Millipore) and analyzed by HPLC (C18, 12-80% acetonitrile in water, both containing 0.1% trifluoroacetic acid, monitoring at 214 nm.
# (§2) Porcine kidney lung preparations were diluted 1:10 with PBS; rat kidney preparations were diluted 1:100 with PBS; porcine lung preparations were diluted 1:1 in PBS. […] At various time points the reactions were quenched by the addition of 100 μL of ethanol, centrifuged and analyzed by HPLC as described above. The half-life for the disappearance of the HPLC peak was determined using the computer program ENZFIT (Elsevier).
# in vitro = conditions: pig, lung membranes, pH 7.2
# Description: as §1, §2
substance,measurement,setting,value
"D-Arg-Arg-Pro-Hyp-Gly-Thi-Ser-D-Tic-Oic-Arg [HOE-140, reference compound]",B1 (Rabbit Aorta),[1],Inactive
same,% Recovery,[2],41%
D-Arg-Arg-Pro-Hyp-Gly-Thi-Ser-DTic-NChg [Compound 2],% Recovery,[2],0%
D-Arg-Arg-Pro-Hyp-Gly-Thi-Ser-Igl*-NChg-Arg [Compound 3],% Recovery,[2],100%
D-Arg-Arg-Pro-Hyp-Gly-Thi-Ser-Igl*-NChg-Arg [Compound 4],B2 pA2 (Rat Uterus),[2],Agonist
same,activity in rat uterus functional tissue assay,[2],agonists
D-Arg-Arg-Pro-Hyp-Gly-Thi-Ser-NBng-Oic [Compound 1],% Recovery,[2],32%
D-Arg-Arg-Pro-Hyp-Gly-Thi-Ser-NPeg-Oic-Arg [Compound 11],B2 pA2 (Rat Uterus),[2],Agonist
same,activity in rat uterus functional tissue assay,[2],agonists
"RPPGFSPFR [Bradykinin, Arg^1 -Pro^2 -Pro^3 -Gly^4 -Phe^5 -Ser^6 -Pro^7 -Phe^8 -Arg^9]",Ki,[3],0.0301 nM
same,half-life at 100 µM,[4],3 min
same,half-life at 100 µM,in vitro,3 min
"[dR]RP[Hyp]GGS[dTic][Oic]R [CP-0601, reference compound]",% Recovery,[2],75%
"[dR]RP[Hyp][2Thi]GS[dTic][Oic]R [CP-0589, reference compound]",% Recovery,[2],57%
δ-Gpa-Arg-Pro-Hyp-Gly-Thi-Ser-D-Tic-NChg-Arg [Compound 13],% Recovery,[2],66%
same,activity in rat uterus functional tissue assay,[2],highly potent antagonists
δ-Gpa-Pro-Hyp-Gly-Thi-Ser-D-Tic-NChg-Arg [Compound 14],% Recovery,[2],81%
